{"source": "patent US20140227201A1", "about": "“Antimicrobial Gel Formulations” (NovaBay Pharmaceuticals, Inc., priority 2013, published 2014)", "assay": "Amount of compound an AA-1 polymer formulation can hold", "assay_type": "physicochemical", "settings": "by weight", "excerpt": "The formulations may be made by mixing the N-halogenated or N,N-dihalogenated amine compound with the polymer using water. Water/oil emulsions, hydrating agents, wetting agents, surfactants, and the like may also be used. Concentrations of N-halogenated or N,N-dihalogenated amine compound may range from about 0.01% to about 5.0% (by weight). Concentrations of polymer may be from about 0.01% to about 10% (by weight) in water. For example, in certain implementations, the concentration of N-halogenated or N,N-dihalogenated compounds may range from about 0.1% to about 2.0% (by weight). Higher concentrations of polymer may be required to formulate higher concentrations of the N-halogenated or N,N-dihalogenated amine compound. For example, a 1% AA-1 formulation can hold up to about 2% N,N-dichloro-2,2-dimethyltaurine, whereas a 2% AA-1 formulation can hold up to about 3.5% of the same compound. These ratios may differ as different polymers and N-halogenated or N,N-dihalogenated amine compound are combined in a given formulation.", "data": [{"smiles": "CC(C)(CS(=O)(=O)O)N(Cl)Cl", "note": "[NVC-422, N,N-dichloro-2,2-dimethyltaurine]", "values": [{"measurement": "amount of compound the formulation can hold", "setting": "1% AA-1 formulation", "result": "about 2%"}, {"measurement": "amount of compound the formulation can hold", "setting": "2% AA-1 formulation", "result": "about 3.5%"}]}]}
